According to US20220233553A1, “CELLULAR SENESCENCE ACTIVATING COMPOUNDS” (UNIVERSIDAD NACIONAL AUTONOMA DE MEXICO, priority 2019, published 2022):

Experiments:
HCT-15 = assay: Cytotoxicity against colon cancer cell lines, 24, 48 and 72 hours; assay type: cell-based
HCT-116 = assay: as above; assay type: cell-based
[1] = Blood parameters of the treated mice
SW-620 = assay: Cytotoxicity against colon cancer cell lines, 24, 48 and 72 hours; assay type: cell-based
HCT-116 cancer cells = assay: Xenotransplantation study, antitumor activity; assay type: in vivo, mice; conditions: for reduction in tumor size: vs untreated mouse
Source text: The arrows indicate the days of compound administration, in a regimen of 1 administration per week for 3 weeks, each point represents the average and SD of 6 mice.
The arrows indicate the days of administration, with 3 administrations per week for 3 weeks, each point representing the mean±SD of 6 mice.

U251 (CNS) = assay: Effect on cell lines (CI50, % growth inhibition); assay type: cell-based; conditions: Homo sapiens; for IC50: U-251, read-out: CI50 ± EE, μM U251 (CNS)
PC-3 (prostate) = assay: Effect on cell lines (CI50, % growth inhibition); assay type: cell-based; conditions: for IC50: Homo sapiens, PC-3, read-out: CI50 ± EE, μM PC-3 (prostate)
HCT-15 (colon) = assay: Effect on cell lines (CI50, % growth inhibition); assay type: cell-based; conditions: Homo sapiens; for IC50: HCT-15, read-out: CI50 ± EE, μM HCT-15 (colon)
K562 (leukemia) = assay: Effect on cell lines (CI50, % growth inhibition); assay type: cell-based; conditions: Homo sapiens; for IC50: K562, read-out: CI50 ± EE, μM K562 (leukemia)
breast (MCF-7) = assay: % growth inhibition in cell lines; assay type: cell-based; conditions: Homo sapiens, MCF7
[2] = tested on: proliferating cell nuclear antigen (PCNA); assay: PCNA immunolabelling of xenotransplanted tumor tissue; conditions: groups treated at different doses; control group 54.81%±15.63
[3] = tested on: HCT-116 cell xenotransplantation; assay: Cell morphology in tumor tissues (hematoxylin-eosin, DAPI); conditions: tumor tissues of treated mice vs control group
β-galactosidase enzyme = assay: β-galactosidase activity (cellular senescence) in colon cancer cell lines; assay type: cell-based; conditions: 72 hours, 30 μM, colon cancer cell lines HCT-116 and HCT-15
Description: FIG. 12. A) β-galactosidase activity in HCT-116 cells, B) β-galactosidase activity in HCT-15 cells, C) Cell control of the HCT-116 cell line, D) HCT-116 cells treated with In […] for 72 hours.
Now, as already mentioned above, the mechanism by which In exerts an antitumor effect without generating cytotoxicity on healthy cells is through the induction of cellular senescence.

lung (SKUL) = assay: % growth inhibition in cell lines; assay type: cell-based
HCT-116 line = assay: Apoptosis induction, double labeling with annexin V and IP; assay type: cell-based; conditions: 30 μM, 72 hours of treatment
Source text: FIG. 2. Results of the apoptosis induction using a double labeling with annexin V and IP, due to the effect of compound In.

[4] = Toxicity in nu/nu mice (LD50, weight, physical or behavioral changes); assay type: in vivo
Source text: FIG. 7. […] Each point in the graphs represents the mean±SD of the weight of 3 mice per experimental group.

[5] = 2 mg/Kg, administration 3 (times a week)

SMILES: N.N.[Cl][Pt][Cl] [Cisplatin]
- IC50 (HCT-15; HCT-15, incubation 24 h): 12.5 ± 0.5 µM
- IC50 (HCT-15; HCT-15, incubation 48 h): 10.7 ± 0.6 µM
- IC50 (HCT-15; HCT-15, incubation 72 h): 4.68 ± 0.3 µM
- IC50 (HCT-116; HCT-116, incubation 24 h): 10.8 ± 0.7 µM
- IC50 (HCT-116; HCT-116, incubation 48 h): 8.37 ± 0.5 µM
- IC50 (HCT-116; HCT-116, incubation 72 h): 3.09 ± 0.3 µM
- Alanine aminotransferase [1, 5]: 75.21 UL
- Aspartate aminotransferase [1, 5]: 197.32 UL
- Creatinine [1, 5]: 43.3 μM/l
- Erythrocytes [1, 5]: 7.14e+12 L⁻¹
- Glucose [1, 5]: 7.80 mmol/L
- Hemoglobin [1, 5]: 113 g/L
- Leukocytes [1, 5]: 1.6e+09 L
- Lymphocytes [1, 5]: 0.52 × × 10^9/l
- Urea [1, 5]: 9.06 mmol/L
- Alanine aminotransferase ([1]; 4 mg/Kg, once a week): 62.89 UL
- Aspartate aminotransferase ([1]; 4 mg/Kg, once a week): 151.25 UL
- Creatinine ([1]; 4 mg/Kg, once a week): 29.06 μM/l
- Erythrocytes ([1]; 4 mg/Kg, once a week): 7.36e+12 L⁻¹
- Glucose ([1]; 4 mg/Kg, once a week): 8.56 mmol/L
- Hemoglobin ([1]; 4 mg/Kg, once a week): 115 g/L
- Leukocytes ([1]; 4 mg/Kg, once a week): 2.1e+09 L
- Lymphocytes ([1]; 4 mg/Kg, once a week): 5.2e+08 L⁻¹
- Urea ([1]; 4 mg/Kg, once a week): 7.57 mmol/L
- Leukocytes ([1]; 4 mg/kg once a week and mg/kg three times a week for 3 weeks): decreased leukocytes
- IC50 (SW-620; SW-620, incubation 24 h): 18 ± 0.5 µM
- IC50 (SW-620; SW-620, incubation 48 h): 13.9 ± 0.4 µM
- IC50 (SW-620; SW-620, incubation 72 h): 9.09 ± 0.3 µM
- tumor reduction compared with In 250 mg/kg (HCT-116 cancer cells; 2 mg/kg three times a week for 21 days): equivalent

SMILES: CC(=O)O[C@H]1C[C@@]2(C)C3CCC4C(C)(C)C(=O)C=C[C@@]45C[C@@]35CC[C@]2(C)C1[C@]1(C)CC[C@H](C(C)(C)OC(C)=O)O1 (some centres unmarked) [Ic]
- IC50 (U251 (CNS)): 58.4 ± 4 µM
- IC50 (PC-3 (prostate)): 13.9 ± 0.324 µM
- IC50 (HCT-15 (colon)): > 100 µM
- IC50 (K562 (leukemia)): > 100 µM

SMILES: CC(=O)O[C@H]1C[C@@]2(C)C3CCC4C(C)(C)/C(=N/O)CC[C@@]45C[C@@]35CC[C@]2(C)C1[C@]1(C)CC[C@H](C(C)(C)OC(C)=O)O1 (some centres unmarked) [Ig]
- IC50 (U251 (CNS)): 21.4 ± 1.67 µM
- IC50 (PC-3 (prostate)): 12.6 ± 2.42 µM
- IC50 (HCT-15 (colon)): 28.9 ± 3.17 µM
- IC50 (K562 (leukemia)): 15.2 ± 2.35 µM

SMILES: CC1(C)c2oncc2C[C@]23C[C@]24CC[C@]2(C)C([C@]5(C)CC[C@H](C(C)(C)O)O5)[C@@H](O)C[C@@]2(C)C4CCC13 (some centres unmarked) [Ii]
- IC50 (U251 (CNS)): 11.3 ± 1.55 µM
- IC50 (PC-3 (prostate)): 13 ± 3.56 µM
- IC50 (HCT-15 (colon)): 10.2 ± 0.77 µM
- IC50 (K562 (leukemia)): 11 ± 1.05 µM

SMILES: CC1(C)C(=O)CC[C@]23C[C@]24CC[C@]2(C)C([C@]5(C)CC[C@H](C(C)(C)O)O5)[C@@H](O)C[C@@]2(C)C4CCC13 (some centres unmarked) [In, Argentantine A]
- IC50 (U251 (CNS)): 27.3 ± 1 µM
- inhibition at 50 µM (U251 (CNS); U-251, 50 μM, U251): 27.3%
- inhibition at 50 µM (PC-3 (prostate); 50 μM, PC-3): 20.2%
- IC50 (PC-3 (prostate)): 20.2 ± 3.44 µM
- IC50 (HCT-15; Homo sapiens, HCT-15, incubation 24 h): 95.43 ± 0.6 µM
- IC50 (HCT-15; Homo sapiens, HCT-15, incubation 48 h): 59.7 ± 1.3 µM
- IC50 (HCT-15; Homo sapiens, HCT-15, incubation 72 h): 44.8 ± 0.9 µM
- inhibition at 50 µM (breast (MCF-7)): 26.6%
- IC50 (HCT-116; Homo sapiens, HCT-116, incubation 24 h): 87.83 ± 0.7 µM
- IC50 (HCT-116; Homo sapiens, HCT-116, incubation 48 h): 53.33 ± 0.2 µM
- IC50 (HCT-116; Homo sapiens, HCT-116, incubation 72 h): 43.17 ± 0.4 µM
- quantification of PCNA (percentage of PCNA positive cells) [2]: 10-20%
- fragmented nuclei (DAPI labeling) as signal of cell death [3]: no fragmented nuclei
- IC50 (SW-620; Homo sapiens, SW-620, incubation 24 h): 115.6 ± 0.4 µM
- IC50 (SW-620; Homo sapiens, SW-620, incubation 48 h): 72.46 ± 0.2 µM
- IC50 (SW-620; Homo sapiens, SW-620, incubation 72 h): 61.3 ± 1.2 µM
- β-galactosidase enzyme activity (β-galactosidase enzyme): observed predominantly in cells of the HCT-116 line
- IC50 (HCT-15 (colon)): 31.7 ± 1.1 µM
- inhibition at 50 µM (HCT-15 (colon); 50 μM, HCT-15): 31.7%
- IC50 (K562 (leukemia)): 38.6 ± 4.47 µM
- inhibition at 50 µM (K562 (leukemia); 50 μM, K562): 38.6%
- inhibition at 50 µM (lung (SKUL)): 0%
- reduction in tumor size (HCT-116 cancer cells; 250 mg/kg once a week for 21 days): 49.1%
- reduction of the tumor (HCT-116 cancer cells; 250 mg/kg three times a week for 21 days, vs untreated mice): 78.1%
- reduction in tumor size (HCT-116 cancer cells; 500 mg/kg once a week for 21 days): 48.8%
- apoptosis induction (HCT-116 line): only induced apoptosis in the HCT-116 line
- physical or behavioral changes ([4]; 500 mg/kg once a week and 250 mg/kg three times a week for three weeks): no physical or behavioral changes
- weight loss ([4]; 250 and 500 mg/kg): does not cause weight loss
- toxicity ([4]; 500, 250 or 125 mg/kg once a week for 3 weeks, nu/nu mice): does not show toxicity
- LD50 at 3 weeks ([4]; mouse, in vivo, intraperitoneal, nu/nu mice, read-out: mean lethal dose (LD50)): > 500 mg/kg
